From BindingDB's records for doi:10.1016/j.bmcl.2006.01.105 (Wyeth Research, 2006)

Assay: Antiviral activity against Hepatitis C virus replicon in Huh7 cells

## CCCC1(C(=O)O)CCc2c1[nH]c1c(Cl)ccc(Cl)c21 (stereo unspecified) [5,8-dichloro-3-propyl-1,2,3,4-tetrahydrocyclopenta[b]indole-3-carboxylic acid]
  IC50: 27 µM
